Holding throughout (assay type): biochemical
One assay deals with Aurora-1 (Aurora B) (Homo sapiens, UniProt Q96GD4). Description: Aurora-1 (Aurora B) inhibition assay (radiometric). The essentials:
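Ki values come from non-linear regression of background-corrected initial-rate data. The enzyme was preincubated 10 min at 25° C with compound, then reacted 3 h with 800 μM (final) [γ-^33P]-ATP in HEPES pH 7.5/MgCl2/BSA/glycerol buffer. The reaction was stopped with phosphoric acid and substrate-bound ^33P counted on phosphocellulose.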

The next assay has as its target T1, human Itk kinase (Homo sapiens, UniProt Q08881).
T1 sequence (Q08881 1-620): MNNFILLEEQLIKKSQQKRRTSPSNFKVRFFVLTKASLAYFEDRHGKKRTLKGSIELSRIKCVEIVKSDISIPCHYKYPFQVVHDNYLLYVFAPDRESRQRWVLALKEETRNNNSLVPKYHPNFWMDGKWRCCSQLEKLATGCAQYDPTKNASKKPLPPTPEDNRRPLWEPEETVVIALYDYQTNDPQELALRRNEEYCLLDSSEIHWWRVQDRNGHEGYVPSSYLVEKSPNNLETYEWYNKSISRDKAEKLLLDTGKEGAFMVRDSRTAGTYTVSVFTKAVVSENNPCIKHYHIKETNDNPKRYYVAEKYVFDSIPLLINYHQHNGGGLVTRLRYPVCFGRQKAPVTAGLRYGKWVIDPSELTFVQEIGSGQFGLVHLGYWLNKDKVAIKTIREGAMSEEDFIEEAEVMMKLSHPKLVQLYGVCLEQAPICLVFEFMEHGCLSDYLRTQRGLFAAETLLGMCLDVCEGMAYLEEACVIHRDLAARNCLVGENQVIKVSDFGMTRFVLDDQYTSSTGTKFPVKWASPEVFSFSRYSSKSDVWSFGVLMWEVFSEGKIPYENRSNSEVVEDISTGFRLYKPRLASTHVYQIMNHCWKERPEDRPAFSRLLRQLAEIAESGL
Description: Itk inhibition assay: radioactivity-based assay. The settings on record: Ki(app). The essentials: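 50 nM Itk with 3 μM SAM68 Δ332-443 peptide and 7.5 μM [γ-33P]ATP in MOPS pH 7.0, MgCl2, 25° C; compound (top 50 μM final, 2-fold dilutions, 2% DMSO) preincubated 10 min, reaction 10 min. Phosphocellulose filter capture and scintillation counting; Ki(app) by non-linear regression of initial rates.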

The target in another assay is T2, Aurora-2 (Aurora A) (Homo sapiens, UniProt O14965).
T2 sequence (O14965 1-403): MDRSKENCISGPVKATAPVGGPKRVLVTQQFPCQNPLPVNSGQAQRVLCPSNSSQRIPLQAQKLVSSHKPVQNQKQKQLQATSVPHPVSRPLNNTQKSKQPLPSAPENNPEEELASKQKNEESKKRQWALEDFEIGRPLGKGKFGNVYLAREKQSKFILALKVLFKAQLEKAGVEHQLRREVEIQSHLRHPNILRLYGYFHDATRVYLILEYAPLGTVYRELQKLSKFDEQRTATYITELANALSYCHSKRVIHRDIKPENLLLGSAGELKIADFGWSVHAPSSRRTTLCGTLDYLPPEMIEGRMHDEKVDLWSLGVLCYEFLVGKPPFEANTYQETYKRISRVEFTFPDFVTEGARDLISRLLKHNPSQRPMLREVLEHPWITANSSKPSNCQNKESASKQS
Description: Aurora-2 (Aurora A) inhibition assay, coupled enzyme. The method, boiled down:
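These rates came from NADH consumption coupled through pyruvate kinase and lactate dehydrogenase (100 mM Hepes pH 7.5, 10 mM MgCl2, 300 μM NADH). Aurora-2 was present at 40 nM, and the reaction ran at 30 °C after a 10 min preincubation.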

Setting [1] is: read-out: Aurora B kinase Ki value.
The mark [2] stands for this setting: read-out: Aurora A kinase Ki value.

“And” between values parts separate entries of the source, which are not always exact repeats. Equal entries are not always repeated. Where two headings read alike, the source gives them in different places.

Chain of Aurora-1 (Aurora B) (Q96GD4 whole entry): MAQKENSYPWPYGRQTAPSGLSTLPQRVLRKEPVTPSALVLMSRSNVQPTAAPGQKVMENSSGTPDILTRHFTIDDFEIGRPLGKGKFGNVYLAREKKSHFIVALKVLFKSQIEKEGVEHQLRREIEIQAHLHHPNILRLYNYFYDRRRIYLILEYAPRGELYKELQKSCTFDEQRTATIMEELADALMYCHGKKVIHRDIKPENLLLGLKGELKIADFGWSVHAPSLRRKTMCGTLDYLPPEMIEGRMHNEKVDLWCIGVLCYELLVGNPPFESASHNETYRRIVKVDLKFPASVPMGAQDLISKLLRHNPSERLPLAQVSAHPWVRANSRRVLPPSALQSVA

Consider `CC1=NN=C(Nc2cc(N3CCC3)nc(Sc3ccc(NC(=O)c4cccc(Cl)c4F)cc3)n2)C1` [Compound 61], for which the figures for the Ki at Aurora-1 (Aurora B) (setting [1]), on human Itk kinase and on Aurora-2 (Aurora A) (setting [2]) were at most 10 nM, at most 100 nM and at most 1 nM, respectively.
The corresponding values for `CC1=NN=C(Nc2cc(N3CCC3)nc(Sc3ccc(NC(=O)c4ccccc4)cc3)n2)C1` [Compound 52] are 50 to 2000 nM, 100 to 1000 nM and 5 to 200 nM.
On to `CCC(=O)Nc1ccc(Sc2nc(Nc3cc(C)n[nH]3)cc(N3CC(O)(C(C)(C)C)C3)n2)cc1` [Compound 81], for which the figures for the Ki at Aurora-1 (Aurora B) (setting [1]), on human Itk kinase and on Aurora-2 (Aurora A) (setting [2]) were at most 10 nM, at most 100 nM and at most 1 nM, respectively.
On to `CC1=NN=C(Nc2cc(N3CCC3)nc(Sc3ccc(NC(=O)C4CCCN4C)cc3)n2)C1` (centres unmarked) [Compound 6], for which the Ki at Aurora-1 (Aurora B) (Aurora B kinase Ki value) is 10 to 50 nM and < 25 nM; at human Itk kinase it was 100 to 1000 nM; at Aurora-2 (Aurora A) (setting [2]), 5 to 200 nM.
For the molecule `CCC(=O)Nc1ccc(Sc2nc(Nc3cc(C)n[nH]3)cc(N3CC(C)(NC(C)(C)C)C3)n2)cc1` [Compound 80], the Ki at Aurora-1 (Aurora B) (setting [1]) was 10 to 50 nM; at human Itk kinase, 100 to 1000 nM; on Aurora-2 (Aurora A) (setting [2]), 1 to 5 nM.
Consider `Cc1ccc(S(=O)(=O)Nc2ccc(Sc3nc(Nc4cc(C)[nH]n4)cc(N4CCC4)n3)cc2)cc1` [Compound 27], for which the Ki at Aurora-1 (Aurora B) (setting [1]) was in the range of 50 to 2000 nM; at human Itk kinase, 1000 to 2000 nM; on Aurora-2 (Aurora A), 1 to 5 nM.
Take `CCC(=O)Nc1ccc(Sc2nc(Nc3cc(C)n[nH]3)cc(N3CC(C)(O)C3)n2)cc1` [Compound 71]: the Ki at Aurora-1 (Aurora B) (setting [1]) lay in the range of 10 to 50 nM; on human Itk kinase, 100 to 1000 nM; on Aurora-2 (Aurora A) (setting [2]) it was 1 to 5 nM.
On to `Cc1cc(Nc2cc(N3CCC3)nc(Sc3ccc(NC(=O)c4ccc(Cl)cc4)cc3)n2)n[nH]1` [Compound 54], for which the Ki at Aurora-1 (Aurora B) (setting [1]) is 50 to 2000 nM; at human Itk kinase, 100 to 1000 nM; on Aurora-2 (Aurora A), 1 to 5 nM.
With `CCC(=O)Nc1ccc(Sc2nc(C#CC(C)(C)N3CCC3)cc(Nc3cc(C)n[nH]3)n2)cc1` [Compound 77], the Ki at Aurora-1 (Aurora B) (setting [1]) is 50 to 2000 nM; on human Itk kinase, 100 to 1000 nM; on Aurora-2 (Aurora A) (setting [2]), 1 to 5 nM.
For `Cc1cc(Nc2cc(N3CCC3)nc(Sc3ccc4ccccc4c3)n2)n[nH]1` [Compound 25] the same measures were 50 to 2000 nM, 1000 to 2000 nM and 1 to 5 nM.
With `Cc1ccc(C(=O)Nc2ccc(Sc3nc(Nc4cc(C)[nH]n4)cc(N4CCC4)n3)cc2)cc1` [Compound 28], the values for the Ki on Aurora-1 (Aurora B) (setting [1]), on human Itk kinase and on Aurora-2 (Aurora A) were 10 to 50 nM, 100 to 1000 nM and 1 to 5 nM, respectively.
As to `CCC(=O)Nc1ccc(Sc2nc(Nc3cc(C)[nH]n3)cc(N3CCC3)n2)cc1` [Compound 14], the Ki at Aurora-1 (Aurora B) (setting [1]) is 10 to 50 nM and < 25 nM; at human Itk kinase, 100 to 1000 nM; at Aurora-2 (Aurora A) (setting [2]), 1 to 5 nM.
In the case of `Cc1cc(Nc2cc(N3CCC3)nc(Sc3ccc(NC(=O)c4nccn4C)cc3)n2)n[nH]1` [Compound 166], the values for the Ki at Aurora-1 (Aurora B) (setting [1]), on human Itk kinase and on Aurora-2 (Aurora A) (setting [2]) were 50 to 2000 nM, 1000 to 2000 nM and 5 to 200 nM, respectively.
The corresponding values for `Cc1cnc(Nc2cc(N3CC(N(C)C)C3)nc(Sc3ccc(NC(=O)C4CC4)cc3)n2)s1` [Compound 1] are 10 to 50 nM, 100 to 1000 nM and 5 to 200 nM.
As to `Cc1cc(Nc2cc(N3CCC3)nc(Sc3ccc(NC(=O)CC(F)(F)F)cc3)n2)n[nH]1` [Compound 40], the Ki is at most 10 nM on Aurora-1 (Aurora B) (setting [1]), 100 to 1000 nM at human Itk kinase and at most 1 nM at Aurora-2 (Aurora A) (setting [2]).
The corresponding values for `CC1=NN=C(Nc2cc(N3CCC3)nc(Sc3ccc(NC(=O)c4ccccc4Cl)cc3)n2)C1` [Compound 5] are at most 10 nM, 100 to 1000 nM and at most 1 nM.
For `CCC(=O)Nc1ccc(Sc2nc(Nc3cc(C4CC4)n[nH]3)cc(N3CC(C)(O)C3)n2)cc1` [Compound 76] the same measures were at most 10 nM, at most 100 nM and 1 to 5 nM.
Regarding `Cc1cc(Nc2cc(N3CCC3)nc(Sc3ccc(C(=O)NC4CCCC4)cc3)n2)n[nH]1` [Compound 23], the figures for the Ki on Aurora-1 (Aurora B) (setting [1]) and at Aurora-2 (Aurora A) (setting [2]) were 50 to 2000 nM and 5 to 200 nM, respectively.

Source of the values: patent publication US8637511B2, “Aminopyrimidines useful as kinase inhibitors” (Vertex Pharmaceuticals Incorporated, priority 2005, dated 2014).
